# According to publication PMC10539439 (Pharmacological Reports, 2023):
# Experiments:
# [1] = Pharmacokinetics in plasma after ip administration; assay type: in vivo, rat; conditions: for concentration at 5 min / concentration at 15 min / concentration at 30 min / concentration at 60 min / concentration at 120 min / concentration at 240 min / CL/F / Tmax / Vd/F / half-life: male, Wistar, plasma; for concentration at 5 min / concentration at 15 min / concentration at 30 min / concentration at 60 min / concentration at 120 min / concentration at 240 min / CL/F / Tmax / Vd/F / half-life / volume of distribution: rat; for concentration at 5 min / concentration at 15 min / concentration at 30 min / concentration at 60 min / concentration at 120 min / concentration at 240 min: intraperitoneal, mean; for concentration at 5 min: 5 min after administration; for concentration at 15 min: 15 min after administration; for concentration at 30 min: 30 min after administration; for concentration at 60 min: 60 min after administration; for concentration at 120 min: 120 min after administration; for concentration at 240 min: 240 min after administration; for CL/F / Tmax / Vd/F / half-life / t0.5 terminal half-life / volume of distribution: ip; for half-life / t0.5 terminal half-life: rat plasma; for half-life / t0.5 terminal half-life / volume of distribution: Guanabenz 0.3 mg/kg, 4-OH-Guanabenz 0.4 mg/kg; for half-life: read-out: t0.5 terminal half-life
# Experimental: (§1) For the pharmacokinetic study, a group of 56 adult male rats (Wistar, 220–250 g, […]) were used in the experiment. Animals were purchased from the Animal House of the Faculty of Pharmacy of Jagiellonian University Medical College, Krakow, Poland. During the habituation period, the groups of 4 rats were kept in a plastic cage at a controlled room temperature (22 ± 2 ℃), humidity (55 ± 10%), full-spectrum cold white light (350–400 lx), in 12 h light/dark cycles (the lights on at 7:00 am, and off at 19:00 pm), and had free access to standard laboratory pellet and tap water. […] These were then given through an intraperitoneally injections (ip) at a dose of 0.3 mg/kg and 0.4 mg/kg, respectively. Blood samples were collected at 0 min (predose), 5 min, 15 min, 30 min, 60 min, 120 min, and 240 min after compound administration. Blood and brain samples were collected under general anesthesia induced by ip injections of 50 mg/kg ketamine plus 8 mg/kg xylazine. Blood samples were taken in heparinized tubes and immediately centrifuged at 3500 rpm for 10 min, and plasma was collected. Brain and plasma samples were immediately frozen at – 80 ℃ for LC/MS/MS analysis. All experimental procedures were carried out according to EU Directive 2010/63/EU and approved by the I Local Ethics Committee for Animal Experiments of the Jagiellonian University in Krakow, Poland (No. 94/2016).
# (§2) The pharmacokinetic parameters were calculated using a non-compartmental approach from the average concentration values, using Phoenix WinNonlin software (Certara, Princeton, NJ 08540 USA). The first-order elimination rate constant (λz) was calculated by linear regression of time versus log concentration. Next, the area under the mean plasma and the concentration in the brain versus the time curve (AUC0→t) were estimated using the log-linear trapezoidal rule (Eq. 1), where Cn is the concentration of the last sampling of each compound1 AUC0→t=∑i=1n(Ci+Ci+1)/2·ti+1-ti+Cn/λz.
# The area under the first-moment curve (AUMC0→t) was estimated by calculating of the total area under the first-moment curve using Eq. 2, where tn is the time of last sampling2 AUMC0→t=∑i=1n(ti·Ci+ti+1·Ci+1)/2·ti+1-ti+(tn·Cn)/λz+Cn/λz2.
# Mean residence time (MRT, Eq. 3) was calculated as3 MRT=AUMC0→t/AUC0→t.
# Total clearance (ClT, Eq. 4) was calculated as4 C1T=F·Di.p./AUC0→t.
# (§3) The quantification of compounds in plasma and brain samples was performed using the Sciex API 3200 triple quadrupole mass spectrometer (Concord, Ontario, Canada) equipped with an electrospray (ESI) ionization interface. This instrument was coupled to an Elite LaChrom (Hitachi, USA) HPLC system. Data acquisition and processing were performed using Sciex Analyst 1.5.2 data collection and integration software. After preparation, the samples were injected (20 µL) onto XBridge C18 (2.1 mm × 30 mm, 3.5 μm, Waters, Milford, Massachusetts, USA) analytical column. The mobile phase consisted of 0.1% formic acid in acetonitrile (A) and 0.1% formic acid in water (B) was delivered in a gradient elution starting with 90% of eluent B, increasing for 2 min to 90% of eluent A, maintained for 3 min, and then returned for 5 min to 90% of eluent B, and maintained 90% of eluent B during 5 min at a flow rate of 300 µL/min. The total analysis time was 10 min. […] The ion spray source settings were as follows: spray voltage: 5.5 kV, heater temperature: 400 °C, curtain gas: 10 psi, source gas 1: 20 psi, and source gas 2: 20 psi.
# Further dilutions were performed using the same solvent to prepare working standard solutions of the analyte at the following concentrations: 0.025, 0.05, 0.1, 0.25, 0.5, 1.0, 2.5, 5.0, 10, 25, and 50 µg/mL for calibration curve samples (CC) and 0.025, 0.075, 2.2, and 4.5 µg/mL for quality control samples (QC). […]
# [2] = Distribution in brain after ip administration; assay type: in vivo, rat; conditions: for Tmax / concentration at 5 min / concentration at 15 min / concentration at 30 min / concentration at 60 min / concentration at 120 min / concentration at 240 min: male, Wistar, rat, brain; for concentration at 5 min / concentration at 15 min / concentration at 30 min / concentration at 60 min / concentration at 120 min / concentration at 240 min: intraperitoneal, mean; for concentration at 5 min: 5 min after administration; for concentration at 15 min: 15 min after administration; for concentration at 30 min: 30 min after administration; for concentration at 60 min: 60 min after administration; for concentration at 120 min: 120 min after administration; for concentration at 240 min: 240 min after administration; for Penetration into the brain: summary table
# Experimental: as §1, with “Poland.” for “Poland. During the habituation period, the groups of 4 rats were kept in a plastic cage at a controlled room temperature (22 ± 2 ℃), humidity (55 ± 10%), full-spectrum cold white light (350–400 lx), in 12 h light/dark cycles (the lights on at 7:00 am, and off at 19:00 pm), and had free access to standard laboratory pellet and tap water.”
# as §2, §3
# Further dilutions were performed using the same solvent to prepare working standard solutions of the analyte at the following concentrations: 0.025, 0.05, 0.1, 0.25, 0.5, 1.0, 2.5, 5.0, 10, 25, and 50 µg/mL for calibration curve samples (CC) and 0.025, 0.075, 2.2, and 4.5 µg/mL for quality control samples (QC). To prepare samples for calibration curve or quality control samples, 45 µL of the matrix (plasma or brain homogenate) was added with 5 µL of internal standard solution (1 µg/mL) obtaining the final concentration of 100 ng/mL and 5 µL of standard working solutions at the needed CC or QC concentration levels. After the addition of the standard solution, the samples were mixed and purified.
# A sample volume of 50 µL of plasma or brain homogenate was transferred to the clean Eppendorf tube and spiked with 5 µL of IS solution (1 µg/mL) obtaining the final concentration of 100 ng/mL. After 5 min of mixing (1500 rpm) proteins were precipitated using 200 µL ACN. After 10 min of sample shaking (1500 rpm), the incubation step was performed (10 min, 4 °C). The samples were then centrifuged (10,000 rpm, 10 min, 4 °C) and the supernatant was transferred to chromatographic vials for LC/MS/MS analysis.
# [3] = rat brain, ip, Guanabenz 0.3 mg/kg, 4-OH-Guanabenz 0.4 mg/kg
Compound,concentration at 5 min [1] [ng/mL],concentration at 15 min [1] [ng/mL],concentration at 30 min [1] [ng/mL],concentration at 60 min [1] [ng/mL],concentration at 120 min [1] [ng/mL],concentration at 240 min [1] [ng/mL],CL/F [1] [mL/min/kg],Tmax [1] [h],Vd/F [1] [L/kg],half-life [1] [h],t0.5 terminal half-life [1] [h],volume of distribution [1] [L/kg],Tmax ([2]; ip) [h],concentration at 5 min [2] [ng/g],concentration at 15 min [2] [ng/g],concentration at 30 min [2] [ng/g],concentration at 60 min [2] [ng/g],concentration at 120 min [2] [ng/g],concentration at 240 min [2] [ng/g],"t0.5 [2, 3] [min]",also measured
"Cl.N=C(N)NN=Cc1c(Cl)cc(O)cc1Cl [4-OH-Guanabenz, 2-[(2,6-Dichloro-4-hydroxyphenyl)methylene]hydrazinecarboximidamide Hydrochloride]",54.3,101,20.2,41.9,8.65,6.52,17.7,0.25,1.75,~1.15,1.14,1.7,0.25,13.3,64.5,23.9,4.54,3.94,3.2,112.7,"AUC0→t [2, 3]: 2573 ng ⋅ min/g; Penetration into the brain [2]: Poor"
N=C(N)N/N=C/c1c(Cl)cccc1Cl [Guanabenz],10.2,91.2,95.1,14.2,26.1,8.53,13.5,0.5,1.61,~1.38,1.38,1.6,1,45.6,110,164,183,92.5,58.6,116.1,"Tmax ([2]; ip, 0.3 mg/kg): ≤ 1 h; Penetration into the brain [2]: Good"
